The target of one assay is human PDE1B enzyme (Homo sapiens (Human), UniProt Q01064). The experiment in a line: IMAP TR-FRET PDE1B enzymatic assay. The format is biochemical. The conditions noted are these: negative log of half-maximal molar inhibitory concentration; 200 nM FAM-cAMP; values given as bins. Summed up:
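Full-length GST-tagged human PDE1B (250 pg/well) in IMAP BSA buffer with 10 U/ml calmodulin and 2.5 mM CaCl2; compound pre-incubated 5 min at room temperature, then 200 nM (final) FAM-cAMP for 30 min. IMAP binding reagent/Tb added, 1 h; TR-FRET 520/490 ratio read. IC50 from sigmoidal dose-response fit.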
Background: Time-resolved FRET reads energy transfer from a long-lived donor to a nearby acceptor.
On to `CCC1(NC(=O)c2c(C)oc3ncnc(NC4(C)CC4)c23)CC1` [Example 145, N-(1-Ethylcyclopropyl)-6-methyl-4-[(1-methylcyclopropyl)amino]furo[2,3-d]pyrimidine-5-carboxamide], for which the “PDE1b (pIC50)” value is reported as >8.
With `Cc1oc2ncnc(NC3(C)CC3)c2c1C(=O)NC1(C(C)C)CC1` [Example 147, 6-Methyl-4-[(1-methylcyclopropyl)amino]-N-[1-(propan-2-yl)cyclopropyl]furo[2,3-d]pyrimidine-5-carboxamide], the “PDE1b (pIC50)” value was >8.
The same measure, in the same setting: for `Cc1oc2ncnc(NC3(C)CC3)c2c1C(=O)NC1(C2CCC2)CC1` [Example 150, N-(1-Cyclobutylcyclopropyl)-6-methyl-4-[(1-methylcyclopropyl)amino]furo[2,3-d]pyrimidine-5-carboxamide] the value was >8; for `Cc1oc2ncnc(NC3(C)CC3)c2c1C(=O)N1CCN(c2ncccc2F)CC1` [Example 152, 5-[4-(3-Fluoropyridin-2-yl)piperazine-1-carbonyl]-6-methyl-N-(1-methylcyclopropyl)furo[2,3-d]pyrimidin-4-amine], >8.
On the same count and under the same terms, the same measure for `Cc1oc2ncnc(NC3(C)CC3)c2c1C(=O)N1CCN(c2cccc(F)n2)CC1` [Example 154, 5-[4-(6-Fluoropyridin-2-yl)piperazine-1-carbonyl]-6-methyl-N-(1-methylcyclopropyl)furo[2,3-d]pyrimidin-4-amine]: >8.

Staying with this assay, now noted: negative log of half-maximal molar inhibitory concentration; 200 nM FAM-cAMP; values given as bins; read-out: PDE1b (pIC50) (converted).
`Cc1cc(NC(=O)c2c(C)oc3ncnc(NC4(C)CC4)c23)no1` [Example 142, 6-Methyl-N-(5-methyl-1,2-oxazol-3-yl)-4-[(1-methylcyclopropyl)amino]furo[2,3-d]pyrimidine-5-carboxamide]: the IC50 is 10 to 100 nM.
With `Cc1oc2ncnc(NC3(C)CC3)c2c1C(=O)Nc1nccs1` [Example 143, 6-Methyl-4-[(1-methylcyclopropyl)amino]-N-(1,3-thiazol-2-yl)furo[2,3-d]pyrimidine-5-carboxamide], the IC50 is 10 to 100 nM.
On to `COc1ccc(NC(=O)c2c(C)oc3ncnc(NC4(C)CC4)c23)nc1` [Example 144, N-(5-Methoxypyridin-2-yl)-6-methyl-4-[(1-methylcyclopropyl)amino]furo[2,3-d]pyrimidine-5-carboxamide], for which the IC50 is 10 to 100 nM.
The same measure, in the same setting: for `Cc1oc2ncnc(NC3(C)CC3)c2c1C(=O)NC1(CO)CC1` [Example 146, N-[1-(Hydroxymethyl)cyclopropyl]-6-methyl-4-[(1-methylcyclopropyl)amino]furo[2,3-d]pyrimidine-5-carboxamide] the value was 10 to 100 nM.
For the compound `COCC1(NC(=O)c2c(C)oc3ncnc(NC4(C)CC4)c23)CC1` [Example 148, N-[1-(Methoxymethyl)cyclopropyl]-6-methyl-4-[(1-methylcyclopropyl)amino]furo[2,3-d]pyrimidine-5-carboxamide], the IC50 was 10 to 100 nM.
As to `Cc1oc2ncnc(NC3(C)CC3)c2c1C(=O)NC1(C2CC2)CC1` [Example 149, N-(1-Cyclopropylcyclopropyl)-6-methyl-4-[(1-methylcyclopropyl)amino]furo[2,3-d]pyrimidine-5-carboxamide], the IC50 was 10 to 100 nM.
`Cc1oc2ncnc(NC3(C)CC3)c2c1C(=O)NC1CC(c2ccc(F)cc2)C1` (centres unmarked) [Example 151, N-[3-(4-Fluorophenyl)cyclobutyl]-6-methyl-4-[(1-methylcyclopropyl)amino]furo[2,3-d]pyrimidine-5-carboxamide]: the IC50 is 10 to 100 nM.
Regarding `Cc1oc2ncnc(NC3(C)CC3)c2c1C(=O)N1CCN(c2ncc(F)cn2)CC1` [Example 153, 5-[4-(5-Fluoropyrimidin-2-yl)piperazine-1-carbonyl]-6-methyl-N-(1-methylcyclopropyl)furo[2,3-d]pyrimidin-4-amine], the IC50 is 10 to 100 nM.
Consider `Cc1oc2ncnc(NC3(C)CC3)c2c1C(=O)N1CC[C@@H]2OCC[C@@H]21` [Example 155, 5-[(3aS,6aS)-Hexahydro-2H-furo[3,2-b]pyrrole-4-carbonyl]-6-methyl-N-(1-methylcyclopropyl)furo[2,3-d]pyrimidin-4-amine], for which the IC50 is 10 to 100 nM.

The values are drawn from US20250145633A1, “SUBSTITUTED FURANOPYRIMIDINE COMPOUNDS AS PDE1 INHIBITORS” (Dart NeuroScience, LLC, priority 2017, published 2025).
